Earlier results on 1 molecule are cited in patent US20200029555A1, “BIODEGRADABLE HYDROGEL TO DELIVER AQUEOUS BAIT TO CONTROL PEST ANTS” (priority 2016, published 2020).

Data set [1] has as its system Argentine ants. To be noted: 0.001% liquid thiamethoxam.
Data set [2] concerns laboratory colonies of queens and workers. Particulars: liquid baits 0.00001-0.005% thiamethoxam; 14-day period.

SMILES strings stand for the structures.

Turning to `CN1COCN(Cc2cnc(Cl)s2)/C1=N\[N+](=O)[O-]` [thiamethoxam], the “reduction of Argentine ants in urban settings” value in data set [1] was “successfully reduced”. In addition, in data set [2], the “mortality of laboratory colonies of queens and workers” value was “complete mortality”.
